Measured values from patent publication US20230115907A1, “HETEROCYCLIC COMPOUND AND PHARMACEUTICAL COMPOSITION, PREPARATION METHOD, INTERMEDIATE AND USE THEREOF” (EVOPOINT BIOSCIENCES CO., LTD., priority 2019, published 2023).
Values belong to the molecule of their own block, whether it stands above or below them.

What was measured:
OVCAR3 cells = assay: Inhibition of cell proliferation, CellTiter-Glo, OVCAR3; format: cell-based; details: Homo sapiens, OVCAR-3, 72 h
Procedure: (§1) The compounds were each prepared with 100% DMSO into 10 mM mother liquor.
(§2) HCC70 cells and OVCAR3 cells were digested and counted. Cells were diluted to an appropriate concentration according to cell density. 100 μL of cells were added to each well of a 96-well plate. Medium wells served as blank control (Min). The cells were incubated overnight in an incubator at 37° C./5% CO2.
(§3) A 200-fold stock solution of a compound was prepared with DMSO, and the compound was diluted with growth medium to a 3-fold stock solution, i.e., […] of each of 200-fold stock solutions of compound at different concentrations was added to 197 μL of medium. 50 μL of diluted compound was added to each well and the mixture was incubated at 37° C./5% CO2 for 72 h.
(§4) The 96-well plate was equilibrated to room temperature before detection. 40 μL of CellTiter-Glo solution was added to each well. The mixture was mixed for 2 min using a horizontal shaker to induce cell lysis. The mixture was incubated at room temperature for 60 min to stabilize […] signals. Fluorescence values were read on ENVISION.
(§5) (1) Data was analyzed by GraphPad Prism 5
(§6) (2) % inhibition rate=(maximum signal−compound signal)/(maximum signal−minimum signal)×100
(§7) (3) Maximum signal: signal of DMSO well
(§8) (4) Minimum signal: signal of medium well
(§9) The effect of SZ-015200, SZ-015256 and SZ-015268 on cell proliferation after incubation with HCC70, OVCAR-3, HCT116 and HCC1806 cells for 3 days was detected according to the method described in Efficacy Example 2, and the results are shown in Table 3.

HCC70 cells = assay: Inhibition of cell proliferation, CellTiter-Glo, HCC70; format: cell-based; details: Homo sapiens, HCC70, 72 h
Procedure: as §1, §2, §3, §4, §5, §6, §7, §8, §9

CDK7/Cyclin H/MAT1 = CDK7/Cyclin H/MAT1 (Homo sapiens, UniProt P50613); assay: CDK7 inhibition, mobility shift assay
Chain of CDK7/Cyclin H/MAT1 (P50613 whole entry): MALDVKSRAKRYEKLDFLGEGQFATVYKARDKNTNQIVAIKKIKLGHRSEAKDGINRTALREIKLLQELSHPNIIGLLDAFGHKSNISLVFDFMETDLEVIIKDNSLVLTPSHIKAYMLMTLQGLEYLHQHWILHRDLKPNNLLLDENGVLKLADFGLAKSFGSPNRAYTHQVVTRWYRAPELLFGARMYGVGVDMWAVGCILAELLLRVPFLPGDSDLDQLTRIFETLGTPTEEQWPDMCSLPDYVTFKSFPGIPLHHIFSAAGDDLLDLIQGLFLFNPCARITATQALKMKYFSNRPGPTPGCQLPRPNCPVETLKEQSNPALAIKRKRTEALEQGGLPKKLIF
Chain of CDK7/Cyclin H/MAT1 (P51946 whole entry partner): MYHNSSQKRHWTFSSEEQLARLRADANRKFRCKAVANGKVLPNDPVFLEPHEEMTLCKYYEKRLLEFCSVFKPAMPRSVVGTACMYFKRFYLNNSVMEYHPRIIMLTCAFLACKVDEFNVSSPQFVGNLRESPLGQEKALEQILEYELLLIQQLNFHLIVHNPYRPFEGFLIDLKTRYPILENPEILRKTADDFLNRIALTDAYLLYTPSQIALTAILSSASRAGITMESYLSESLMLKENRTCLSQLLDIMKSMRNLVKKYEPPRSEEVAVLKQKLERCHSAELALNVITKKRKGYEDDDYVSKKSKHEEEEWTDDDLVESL
Chain of CDK7/Cyclin H/MAT1 (P51948 whole entry partner): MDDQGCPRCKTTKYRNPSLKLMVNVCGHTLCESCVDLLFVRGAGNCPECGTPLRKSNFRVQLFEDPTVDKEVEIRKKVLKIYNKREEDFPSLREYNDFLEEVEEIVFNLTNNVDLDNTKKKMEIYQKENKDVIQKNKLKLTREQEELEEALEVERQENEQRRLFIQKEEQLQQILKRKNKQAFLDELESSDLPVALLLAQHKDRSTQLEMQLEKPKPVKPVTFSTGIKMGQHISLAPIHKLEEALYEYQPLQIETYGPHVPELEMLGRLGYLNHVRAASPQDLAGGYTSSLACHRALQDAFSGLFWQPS

HCT116 cells = assay: Inhibition of cell proliferation, CellTiter-Glo, HCT116; format: cell-based; details: Homo sapiens, HCT-116, 72 h; Efficacy Example 3 (Table 3), incubation for 3 days
Procedure: as §2, §3, §4, §6, §9

HCC1806 cells = assay: Inhibition of cell proliferation, CellTiter-Glo, HCC1806; format: cell-based; details: Homo sapiens, HCC1806, 72 h; Efficacy Example 3 (Table 3), incubation for 3 days
Procedure: as §2, §3, §4, §6, §9

[1] = In vivo pharmacokinetics after intragastric administration in rats; set-up: species or system SD rats; details: single intragastric administration, 40 mg/kg; for AUC(0-inf) / AUC(0-t) / Cmax / Tmax / half-life: male, SD, rat, po, plasma; for Cmax and AUC compared with the control compound SZ-015200: in words
Procedure: (§10) Male SD rats were divided into different groups with 3 rats in each group, and single intragastric administration was conducted for each group. The compounds were each formulated with 10% DMSO/10% Solutol/80% (20% Captisol) to reach an appropriate concentration and then administered intragastrically at 40 mg/kg. Blood was taken 5 min, 15 min, 30 min, 1 h, 2 h, 4 h, 6 h, 8 h and 24 h after administration, and then subjected to EDTA-K2 anticoagulation. The concentration of the compound in the plasma was quantitatively detected by an LC-MS/MS method.

[2] = In vivo pharmacokinetics after intragastric administration in mice; details: single intragastric administration, 20 mg/kg; for AUC(0-inf) / AUC(0-t) / Cmax / Tmax / half-life: male, ICR, mouse, po, plasma; for Cmax and AUC compared with the control compound SZ-015200: in words
Procedure: as §10, with “1CR mice” for “SD rats”, “mice” for “rats”, “([…]” for “(20%”, “20” for “40”

[3] = tested on: human colon cancer cells HCT116 xenograft tumor; assay: In vivo efficacy in subcutaneous xenograft tumor model of human colon cancer cells HCT116; set-up: species or system BALB/c nude mice; details: for Tumor inhibition rate (TGI): day 21; for % proliferation percentage of tumor volume (Day 21 after grouping) / Tumor volume (day 21 after grouping): mean value ± standard error; for Effect on inhibiting tumor proliferation compared with the control compound SZ-015200 (in words): HCT116 xenograft, p.o. QD × 21 days; for Anti-tumor effect (in words): SZ-015256: 25 mg/kg and 15 mg/kg treatment groups, SZ-015268 and SZ-015200: 25 mg/kg treatment group
Procedure: HCT116 tumor cells used in this test were purchased from ATCC. HCT116 tumor cells were cultured in McCoy's 5a medium containing inactivated 10% fetal bovine serum, 100 U/mL penicillin, 100 μg/mL streptomycin and 2 mM glutamine in an incubator at 37° C./5% CO2. The cells were divided and transferred to other bottles every 3 to 4 days for passaging when the culture bottle was full of cells. The tumor cells in the logarithmic growth phase were used for tumor seeding in vivo.
HCT116 tumor cells resuspended in serum-free McCoy's 5a culture solution were seeded subcutaneously into the right costal part of male BALB/c nude mice at 5×10^6/0.1 mL. When the tumor grew to 101 mm^3, animals with uniform tumor volume were selected and divided into groups with 8 animals in each group for administration, and the specific administration regimens are shown in Table 6 below.
Tumor volume: the long and short diameters of the tumor were measured twice every week using a vernier caliper for calculating the tumor volume, and the calculation formula was:
volume=0.5×long diameter×short diameter^2.
[…]=mean value of relative tumor volume of treatment group/mean value of relative tumor volume of control group×100
Tumor growth inhibition rate(TGI,%)=(1−T/C)×100
Statistical analysis between groups was performed for tumor volume using One-Way ANOVA test, and a significant difference was considered to be present when p<0.05.

[4] = Efficacy Example 2 (Table 2), 72 h incubation
[5] = Efficacy Example 3 (Table 3), incubation for 3 days

IC50 (OVCAR3 cells; [4]): 138 nM
IC50 (CDK7/Cyclin H/MAT1): 128 nM
Structure (SMILES): Cc1cc(NC2CCN(C(=O)O[C@H]3CCN(C(=O)/C=C/CN(C)C)C3)CC2)c2ncn(C(C)C)c2n1 [SZ-015095, (S,E)-1-(4-(dimethylamino)but-2-enoyl)pyrrolidin-3-yl 4-((3-isopropyl-5-methyl-3H-imidazo[4,5-b]pyridin-7-yl)amino)piperidine-1-carboxylate]
IC50 (HCC70 cells; [4]): 479 nM

IC50 (HCT116 cells): 25.3 nM
IC50 (OVCAR3 cells; [4]): 75.1 nM
IC50 (OVCAR3 cells; [5]): 45.3 nM
IC50 (HCC1806 cells): 44.5 nM
IC50 (CDK7/Cyclin H/MAT1): 54.3 nM
AUC(0-inf) [1]: 7880 ng·h/mL
AUC(0-t) [1]: 7830 ng·h/mL
Cmax [1]: 783 ng/mL
Tmax [1]: 4.67 h
half-life [1]: 179 min
AUC(0-inf) [2]: 6380 ng·h/mL
AUC(0-t) [2]: 6260 ng·h/mL
Cmax [2]: 3380 ng/mL
Tmax [2]: 30 min
half-life [2]: 88.8 min
Cmax and AUC compared with the control compound SZ-015200 [2]: significantly higher
Structure (SMILES): Cc1nc(NC2CCN(C(=O)O[C@H]3CCN(C(=O)/C=C/CN(C)C)C3)CC2)n2ncc(C(C)C)c2n1 [SZ-015256, (S,E)-1-(4-(dimethylamino)but-2-enoyl)pyrrolidin-3-yl 4-((8-isopropyl-2-methylpyrazolo[1,5-a][1,3,5]triazin-4-yl)amino)piperidine-1-carboxylate]
IC50 (HCC70 cells; [4]): 175 nM
IC50 (HCC70 cells; [5]): 50.9 nM
Cmax and AUC compared with the control compound SZ-015200 [1]: The results show that compared with the control compound SZ-015200, the Cmax and the AUC of SZ-015256 and SZ-015268 in rats after single intragastric administration were significantly higher, which indicates that SZ-015256 and SZ-015268 have better pharmacokinetic properties.
Tumor inhibition rate (TGI) ([3]; 15 mg/kg p.o. QD × 21 days): 61.6%
% proliferation percentage of tumor volume (Day 21 after grouping) ([3]; 15 mg/kg p.o. QD × 21 days): 407 ± 40%
Tumor volume (day 21 after grouping) ([3]; 15 mg/kg p.o. QD × 21 days): 402 ± 42 mm^3
Tumor inhibition rate (TGI) ([3]; 25 mg/kg p.o. QD × 21 days): 81.9%
% proliferation percentage of tumor volume (Day 21 after grouping) ([3]; 25 mg/kg p.o. QD × 21 days): 192 ± 38%
Tumor volume (day 21 after grouping) ([3]; 25 mg/kg p.o. QD × 21 days): 201 ± 43 mm^3
Effect on inhibiting tumor proliferation compared with the control compound SZ-015200 (in words) [3]: stronger effect on inhibiting tumor proliferation
Anti-tumor effect (in words) [3]: significant anti-tumor effect

IC50 (HCT116 cells): 12.5 nM
IC50 (OVCAR3 cells; [4]): 29.9 nM
IC50 (OVCAR3 cells; [5]): 80.6 nM
IC50 (HCC1806 cells): 61.5 nM
AUC(0-inf) [1]: 4510 ng·h/mL
AUC(0-t) [1]: 4450 ng·h/mL
Cmax [1]: 543 ng/mL
Tmax [1]: 4 h
half-life [1]: 235 min
AUC(0-inf) [2]: 3150 ng·h/mL
AUC(0-t) [2]: 3100 ng·h/mL
Cmax [2]: 1540 ng/mL
Tmax [2]: 25.2 min
half-life [2]: 83.4 min
Cmax and AUC compared with the control compound SZ-015200 [2]: not lower
Structure (SMILES): Cc1nc(NC2CCN(C(=O)O[C@H]3CCN(C(=O)/C=C/CN(C)C)C3)CC2)c2ncc(C(C)C)n2n1 [SZ-015268, (S,E)-1-(4-(dimethylamino)but-2-enoyl)pyrrolidin-3-yl 4-((7-isopropyl-2-methylimidazo[2,1-f][1,2,4]triazin-4-yl)amino)piperidin-1-carboxylate]
IC50 (HCC70 cells; [4]): 57.5 nM
IC50 (HCC70 cells; [5]): 33 nM
Cmax and AUC compared with the control compound SZ-015200 [1]: The results show that compared with the control compound SZ-015200, the Cmax and the AUC of SZ-015256 and SZ-015268 in rats after single intragastric administration were significantly higher, which indicates that SZ-015256 and SZ-015268 have better pharmacokinetic properties.
Tumor inhibition rate (TGI) ([3]; 25 mg/kg p.o. QD × 21 days): 84.3%
% proliferation percentage of tumor volume (Day 21 after grouping) ([3]; 25 mg/kg p.o. QD × 21 days): 167 ± 39%
Tumor volume (day 21 after grouping) ([3]; 25 mg/kg p.o. QD × 21 days): 172 ± 41 mm^3
Effect on inhibiting tumor proliferation compared with the control compound SZ-015200 (in words) [3]: stronger effect on inhibiting tumor proliferation
Anti-tumor effect (in words) [3]: significant anti-tumor effect

IC50 (CDK7/Cyclin H/MAT1): 23.6 nM
Structure (SMILES): Cc1nc(NC2CCN(C(=O)O[C@H]3CCN(C(=O)/C=C/CN(C)C)C3)CC2)c2ncc(C(C)C)n2n1 [SZ-0015268]

IC50 (OVCAR3 cells; [4]): 460 nM
IC50 (CDK7/Cyclin H/MAT1): 278 nM
Structure (SMILES): Cc1cc2c(ncn2C(C)C)c(NC2CCN(C(=O)O[C@H]3CCN(C(=O)/C=C/CN(C)C)C3)CC2)n1 [SZ-015272, (S,E)-1-(4-(dimethylamino)but-2-enoyl)pyrrolidin-3-yl 4-((1-isopropyl-6-methyl-1H-imidazo[4,5-c]pyridin-4-yl)amino)piperidine-1-carboxylate]
IC50 (HCC70 cells; [4]): 948 nM

IC50 (OVCAR3 cells; [4]): 31.9 nM
IC50 (CDK7/Cyclin H/MAT1): 44.5 nM
Structure (SMILES): Cc1cc(NC2CCN(C(=O)O[C@H]3CCN(C(=O)/C=C/CN(C)C)C3)CC2)c2ncc(C(C)C)n2n1 [SZ-015273, (S,E)-1-(4-(dimethylamino)but-2-enoyl)pyrrolidin-3-yl 4-((3-isopropyl-6-methylimidazo[1,2-b]pyridazin-8-yl)amino)piperidin-1-carboxylate]
IC50 (HCC70 cells; [4]): 291 nM

IC50 (OVCAR3 cells; [4]): 151 nM
IC50 (CDK7/Cyclin H/MAT1): 197 nM
Structure (SMILES): Cc1cn2c(C(C)C)cnc2c(NC2CCN(C(=O)O[C@H]3CCN(C(=O)/C=C/CN(C)C)C3)CC2)n1 [SZ-015274]
IC50 (HCC70 cells; [4]): 187 nM

IC50 (OVCAR3 cells; [4]): 29.7 nM
Structure (SMILES): CC(C)c1cnc2c(NC3CCN(C(=O)O[C@H]4CCN(C(=O)/C=C/CN(C)C)C4)CC3)nc(C3CC3)nn12 [SZ-015338, (S,E)-1-(4-(dimethylamino)but-2-enoyl)pyrrolidin-3-yl 4-((2-cyclopropyl-7-isopropylimidazo[2,1-f][1,2,4]triazin-4-yl)amino)piperidine-1-carboxylate]
IC50 (HCC70 cells; [4]): 48.7 nM

IC50 (OVCAR3 cells; [4]): 64.3 nM
Structure (SMILES): CC(C)c1nc(NC2CCN(C(=O)O[C@H]3CCN(C(=O)/C=C/CN(C)C)C3)CC2)c2ncc(C(C)C)n2n1 [SZ-015339, (S,E)-1-(4-(dimethylamino)but-2-enoyl)pyrrolidin-3-yl 4-((2,7-diisopropylimidazo[2,1-f][1,2,4]triazin-4-yl)amino)piperidine-1-carboxylate]
IC50 (HCC70 cells; [4]): 54.7 nM

IC50 (OVCAR3 cells; [4]): 204 nM
Structure (SMILES): CC(C)c1cn2c(C(C)C)cnc2c(NC2CCN(C(=O)O[C@H]3CCN(C(=O)/C=C/CN(C)C)C3)CC2)n1 [SZ-015342, (S,E)-1-(4-(dimethylamino)but-2-enoyl)pyrrolidin-3-yl 4-((3,6-diisopropylimidazo[1,2-a]pyrazin-8-yl)amino)piperidine-1-carboxylate]
IC50 (HCC70 cells; [4]): 419 nM

IC50 (OVCAR3 cells; [4]): 48.8 nM
Structure (SMILES): CC(C)Oc1nc(NC2CCN(C(=O)O[C@H]3CCN(C(=O)/C=C/CN(C)C)C3)CC2)c2ncc(C(C)C)n2n1 [SZ-015346, (S,E)-1-(4-(dimethylamino)but-2-enoyl)pyrrolidin-3-yl 4-((2-isopropoxy-7-isopropylimidazo[2,1-f][1,2,4]triazin-4-yl)amino)piperidine-1-carboxylate]
IC50 (HCC70 cells; [4]): 140 nM
